Assays:
[1] = test system: children and adolescents with autism spectrum disorder; assay: Aberrant Behavior Checklist-Community (ABC-C), BRIGHT study; parameters: species or system human; conditions: in vivo
Excerpt: Another test that can be used by clinicians to measure the severity of symptoms of ASD is the Aberrant Behavior Checklist-Community test (ABC-C). The original Aberrant Behavior Checklist (ABC) was designed to assess behavioral concerns of adults within institutional settings. The original ABC was later adapted to address patients who are not institutionalized and specifically to address subjects diagnosed with ASD. The Aberrant Behavior Checklist-Community (ABC-C) is used by clinicians, doctors, and researchers to access certain behaviors in non-institutionalized patients with ASD. […]
An exploratory open-label safety, tolerability and efficacy study of Zygel™ ZYN002 transdermal gel to 37 children and adolescents with autism spectrum disorder was conducted. […] ASD was confirmed by Diagnostic and Statistical Manual of Mental Disorders, 5th edition (DSM-5) diagnostic criteria to assess the safety and efficacy of ZYN002 in treating ASD-related behaviors as measured by a variety of efficacy assessments. […]
Subjects were administered a 250 or 500 mg total daily dose, administered twice daily, of CBD in the form of ZYN002 CBD transdermal gel for 14 weeks. […] The trial evaluated multiple efficacy assessments, including the ABC-C, PRAS-ASD, Autism Parenting Stress Index, Autism Impact Measure (AIM), and Clinical Global Impression-Severity (CGI-S) and Improvement (CGI-I). […]

[2] = test system: patients with FXS and comorbid ASD; assay: Pooled analysis of Week 12 change in ABC-C Irritability versus placebo; assay type: in vivo, human
Excerpt: The data collected from the studies presented herein, and other similar studies were pooled together and analyzed. […] The subjects had moderate to severe symptoms of ASD (ADOS-2, comparison score greater than, or equal to, 5). The data presented in Table 2 is the Week 12 change in ABC-C Irritability of all patients. In previous studies (such as presented in Example 1, Table 1) the data was enriched by removing the non-completers from the analysis and only presenting data from the completers.

For `C=C(C)C1CCC(C)=CC1c1c(O)cc(CCCCC)cc1O` (stereo not drawn) [CBD, 2-[3-methyl-6-(1-methylethenyl)-2-cyclohexen-1-yl]-5-pentyl-1,3-benzenediol], the “improvement in irritability, PRAS score >37 compared to ≤37” value [1] was “twice as much improvement in irritability”, the “improvement in irritability, ABC-CFXS Social Avoidance score >7 compared to ≤7” value ([2]; ASD subjects) was “twice as much improvement in irritability” and the “subjects showing an improvement in irritability, high social avoidance and/or anxiety scores compared to lesser scores” value ([2]; in vivo) was “about twice as many subjects”.
